Results: publication PMC9154752, “MHC class II molecules on pancreatic cancer cells indicate a potential for neo-antigen-based immunotherapy” (Oncoimmunology, 2022)
Values joined by “and” are separate entries in the source; they are usually repeats but may differ in a detail not shown here. Equal entries are not always repeated. Where two headings read alike, the source gives them in different places. Residues, ends and D or L forms follow the SMILES beside them. No end group written: not given here.

Assays:
[1] = target: T1, HLA-DP4 (Homo sapiens, UniProt P04440+P20036); test: Cell-based competitive MHC-II binding assay with T2-DP4 cells
T1 construct: expressed in transfected cells; host or cells: T2 lymphoblastoid cell line transfected with HLA-DP4 (T2-DP4), gift of Prof; Naoto Hirano, University of Toronto
T1 sequence (P04440 30-258): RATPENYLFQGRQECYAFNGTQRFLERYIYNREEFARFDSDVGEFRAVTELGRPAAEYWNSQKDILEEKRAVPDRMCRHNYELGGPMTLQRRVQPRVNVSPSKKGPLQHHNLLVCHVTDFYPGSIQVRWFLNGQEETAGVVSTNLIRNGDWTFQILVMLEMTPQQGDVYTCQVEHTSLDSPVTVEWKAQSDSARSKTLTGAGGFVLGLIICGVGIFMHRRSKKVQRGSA
T1 sequence (P20036 29-260): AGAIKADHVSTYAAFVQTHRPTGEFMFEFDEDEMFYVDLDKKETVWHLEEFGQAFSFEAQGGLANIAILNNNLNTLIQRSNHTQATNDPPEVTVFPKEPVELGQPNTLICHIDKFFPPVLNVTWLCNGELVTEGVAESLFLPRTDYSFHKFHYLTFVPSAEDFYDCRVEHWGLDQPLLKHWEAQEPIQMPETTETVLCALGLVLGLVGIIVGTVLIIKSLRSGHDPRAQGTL

[2] = tested on: CD4+ T-cells; test: Immunogenicity T-cell assay (intracellular IFN-γ in peptide-stimulated CD4+ T-cells); format: cell-based, human; conditions: for Immunogenicity, % of responses: percentage of the 9 donors responding; for Immunogenicity, No of responses: responding donors of 9 HLA-DP4-positive donors, 3 weekly stimulations with mDC pulsed at 10 μg/mL, challenge with peptide-pulsed T2-DP4, intracellular IFN-γ by FACS
Protocol: Immunogenicity of candidate HLA-DP4 neo-epitopes was performed using HLA-matched healthy donors’ autologous PBMCs. Briefly, mature DCs were pulsed with individual neo-epitopes at 10 μg/mL and co-cultured with autologous magnetic-sorted CD4+ T-cells (CD4 Microbeads Human, MACS Miltenyi; #130-045-101) in RPMI with 5% AB human serum (#H4522-100ML; Sigma-Aldrich), 10 units/mL penicillin–streptomycin, 2 mmol/L L-glutamine, 1% nonessential amino acid, IL-6 (#570802; BioLegend) (1000 U/mL) and IL-12 (#573002; BioLegend) (5 ng/mL). IL-2 (#589106; BioLegend) (30 U/mL) and IL-7 (#581902; BioLegend) (5 ng/mL) was added every 2 days. CD4+ T-cells underwent another two rounds of stimulation with peptide-pulsed mature DCs on day 7 and 14. Seven days after the third stimulation, CD4+ T-cells were challenged by overnight incubation with peptide-loaded T2-DP4 cells. As a control, CD4+ T-cells were incubated with T2-DP4 without peptide. Reactivity of the T cells was determined by intracellular IFN-γ (#502515; BioLegend) staining measured by flow cytometry. When Capan-1-derived neo-epitopes were tested, the peptide-stimulated CD4+ T-cells were challenged by overnight incubation with Capan-1 (MHC-II-negative), IFN-γ-treated Capan-1 cells (MHC-II-positive). Supernatants were collected and assessed for LDH (cytotoxicity), IFN-γ, granzyme B and granulysin. Where indicated, purified endotoxin-free anti-MHC class II (clone TÜ39; #555556; BD Bioscience, Chicago, IL, USA) antibodies were added to the co-cultures at 10 μg/mL.
(§1) For cell surface labeling, cell suspensions were incubated with antibodies for 30 min at room temperature. For intracellular staining, cells were fixed and permeabilized using a Leucoperm kit (Bio-Rad; #BUF09C) in accordance with the manufacturer’s guidelines. Prior to intracellular staining with anti-IFN-γ, cells were incubated overnight in the presence of 5 microgram per mL brefeldin A (Sigma-Aldrich; #B6542-5 MG). Cell viability was analyzed by Ethidium homodimer 1 and calcein-AM double-staining using LIVE/DEAD® Viability/Cytotoxicity Kit, for mammalian cells according to the manufacturer’s instructions (#L3224; Invitrogen). Flow cytometry was done using a FACSCalibur (Becton Dickinson, Heidelberg, Germany) or BD LSRII (Becton Dickinson) flow cytometer. The data were processed with the CellQuest software (Becton Dickinson, Heidelberg, Germany) and analyzed with the WinMDi 2.9 (Purdue University, USA).

[3] = tested on: PDAC cell lines; test: MHC-II surface expression on PDAC cell lines by flow cytometry; format: cell-based, human; conditions: 48 h; for MHC-II expression, agent alone / MHC-II expression, treatment together with IFN-γ: 8988 T, FA6 and MiaPaca-2 cells; for MHC-II expression, treatment together with IFN-γ: IFN-γ 50 ng/mL
Protocol: All PDAC cell lines were stimulated with 50 ng/mL of the human recombinant IFN-γ (#570206; BioLegend) in T75 culture flasks for 48 h. As negative control, we co-incubated the cell lines in the medium alone. Where inhibitors were used, trametinib (#S2673; Selleckchem) or trichostatin A (TSA) (#T8552-1 MG; Sigma-Aldrich) at the indicated concentrations were added into the cultures with or without IFN-γ. After incubation, the cells were removed from the flasks by treatment with trypsin, cell suspensions were prepared and cells were stained with purified mouse IgG antibodies to CLIP (clone CerCLIP.1; #ab22606; Abcam, Cambridge, UK), and HLA-DR, DP, DQ (clone Tü39; #555556; BD) or isotype control (mouse IgG2a; #554645; BD) followed by Alexa Fluor 488-conjugated anti-mouse IgG, and APC-conjugated anti-PD-L1 (clone 29E.2A3; #329708; BioLegend) and processed for flow cytometry analysis.
as §1

[4] = tested on: MiaPaca-2 cells; test: CD4+ T-cell recognition of MiaPaca-2 cells (granzyme B ELISA); format: cell-based, human; conditions: MHC-II induced by IFN-γ in conjunction with trametinib; overnight, T-cell:tumor 5:1, granzyme B ELISA, 4 donors
Protocol: Figure 8. Trametinib and TSA enhance responsiveness to IFN-γ in PDAC cells. (A) 8988 T, FA6 and MiaPaca-2 cells were treated with IFN-γ or left untreated, in the presence or absence of the MEK inhibitor, trametinib and/or histone deacetylase inhibitor TSA at the indicated concentrations for 48 hours. The cells were then collected, stained with anti-MHC-II antibodies and analyzed by flow cytometry. All flow cytometry data were gated on viable, singlets and MFI values for MHC-II were normalized to the untreated cells (none). Data are from three independent experiments. (B) Allogenic activated CD4+ T-cells from 4 healthy donors were incubated overnight with MiaPaca-2 cells (T-cell:tumor ratio 5:1). Where indicated, the cultures were treated with blocking antibodies or isotype control (IgG). […] All data were analyzed by one-way ANOVA; * P < 0.05; ** p < 0.01; *** p < 0.001; **** p < 0.0001. […]
The cytokine IFN-γ and the cytolytic molecules granulysin and granzyme B were detected in supernatants of T-cell/tumor cell co-cultures using commercial ELISA kits (Human IFN gamma ELISA Ready-SET-Go!®, #88-7316-76, Affymetrix eBioscience; Human Granulysin DuoSet ELISA, #DY3138; and Human Granzyme B DuoSet ELISA, #DY2906-05, R&D Systems) in 96-well microtiter plates (Nunc Maxisorp, Rochester, NY, USA) following the manufacturer’s instructions.

[5] = T2-DP4 cells, overnight 37°C, competitor from 80 µM in 8 serial dilution steps, 500 nM FITC-labeled Oxy271-287, flow cytometry, n = 3 per peptide, read-out: IC50 (µM) Binding Assay

## MIYSLRNTEFKSALR [Peptide 84]
[1]; [5]
  IC50: 24.5 µM

## FNNFTVSFWLRVPKVSASHLE [TT 947-967, reference compound]
[1]
  IC50: 3.05 µM

## FESEKYQDILMWNYR [Peptide 73]
[1]; [5]
  IC50: 15.9 µM

## FQHLHRLTYLKLWYN [Peptide 80]
[1]; [5]
  IC50: 27.8 µM

## QGKYKAFSTCAFHLS [Peptide 70]
[1]; [5]
  IC50: 31.5 µM

## IGQVAAGAFANLRAL [Peptide 99]
[1]; [5]
  IC50: 27.9 µM

## LKFWEDEGFVREEED [Peptide 100]
[2]
  Immunogenicity, % of responses: 22%
  Immunogenicity, No of responses: 2 of 9

## KFESEKYQDILMWNY [Peptide 71]
[1]; [5]
  IC50: 28.9 µM

## RNTGLQTLYSAALYH [Peptide 97]
[1]; [5]
  IC50: 22.6 µM

## SIDRTVMYYGLLFIQ [Peptide 88]
[1]; [5]
  IC50: 71 µM

## ALLKFWEDEGFVREE [Peptide 101]
[2]
  Immunogenicity, % of responses: 44%
  Immunogenicity, No of responses: 4 of 9

## CC(/C=C/C(=O)NO)=C\[C@@H](C)C(=O)c1ccc(N(C)C)cc1 [TSA, trichostatin A]
[3]
  MHC-II expression, agent alone: did not induce expression of MHC-II
  MHC-II expression, treatment together with IFN-γ: enhanced MHC-II expression in FA6 cells, but not in 8988 T and MiaPaca-2 cells

## QPEGPYRVAGYSYVA [Peptide 87]
[1]; [5]
  IC50: 31.9 µM

## CC(=O)Nc1cccc(-n2c(=O)n(C3CC3)c(=O)c3c(Nc4ccc(I)cc4F)n(C)c(=O)c(C)c32)c1 [trametinib]
[3]
  MHC-II expression, agent alone: induced a slight increase in the expression of MHC-II
  MHC-II expression, treatment together with IFN-γ: increased MHC-II expression compared with IFN-γ alone
[4]
  Susceptibility of MiaPaca-2 cells to CD4+ T-cell recognition: rendered these cells susceptible to CD4+ T-cells recognition

## TFRSPQKFGALIFLV [Peptide 91]
[1]; [5]
  IC50: 24.8 µM

## HLVAFGISCFLGSGL [Peptide 77]
[2]; 9 HLA-DP4-positive donors
  Immunogenicity (in words): most immunogenic
[2]
  Immunogenicity, % of responses: 88%
  Immunogenicity, No of responses: 8 of 9

## IYSLRNTEFKSALRR [Peptide 83]
[1]; [5]
  IC50: 27.7 µM

## TAFTFQSSKEKLDVG [Peptide 109]
[2]
  Immunogenicity, % of responses: 11%
  Immunogenicity, No of responses: one out of nine and 1 of 9

## LLKFWEDEGFVREEE [Peptide 98]
[2]
  Immunogenicity, % of responses: 11%
  Immunogenicity, No of responses: one out of nine and 1 of 9

## PRGKGLVYAQYLPKE [Peptide 104]
[1]; [5]
  IC50: 38.2 µM

## GKGLVYAQYLPKEQY [Peptide 105]
[1]; [5]
  IC50: 47.9 µM

## TDLHMLGAPVWAMLF [Peptide 96]
[1]; [5]
  IC50: 10.9 µM

## SFQHLHRLTYLKLWY [Peptide 78]
[1]; [5]
  IC50: 25.8 µM

## GLQTLYSAALYHLTT [Peptide 93]
[1]; [5]
  IC50: 21.6 µM

## RNTIGQVAAGAFANL [Peptide 86]
[1]; [5]
  IC50: 37 µM

## IVKGRFGEVWRGRWR [Peptide 103]
[2]
  Immunogenicity, % of responses: 22%
  Immunogenicity, No of responses: 2 of 9

## CSCC[C@H](NC(=O)[C@H](CCC(N)=O)NC(=O)[C@@H]1CCCN1C(=O)[C@@H](NC(=O)[C@H](CC(=O)O)NC(=O)[C@@H](N)CS)C(C)C)C(=O)N[C@@H](CC(C)C)C(=O)N[C@@H](CCCCN)C(=O)N[C@@H](CC(C)C)C(=O)N[C@@H](C)C(=O)N[C@@H](CS)C(=O)N[C@@H](Cc1ccc(O)cc1)C(=O)N[C@@H](Cc1ccc(O)cc1)C(=O)N[C@@H](CCC(=O)O)C(=O)N[C@@H](Cc1ccccc1)C(=O)O [Peptide 94] (H-CDVPQMLKLACYYEF-OH; N-terminus and C-terminus assumed)
[2]
  Immunogenicity, % of responses: 0%
  Immunogenicity, No of responses: 0 of 9

## TGLQTLYSAALYHLT [Peptide 102]
[1]; [5]
  IC50: 14.3 µM

## YKAFSTCAFHLSVVS [Peptide 69]
[1]; Peptides with IC50 < 200 µM were considered binders
  Binding to HLA-DP4 in cell-based binding assay (in words): not to bind

## QHLHRLTYLKLWYNH [Peptide 82]
[1]; [5]
  IC50: 18.6 µM

## PMIYSLRNTEFKSAL [Peptide 92]
[1]; [5]
  IC50: 6.36 µM

## HTCVKFYIEGFEPGK [Peptide 74]
[2]
  Immunogenicity, % of responses: 11%
  Immunogenicity, No of responses: one out of nine and 1 of 9

B1: IFN-γ: human recombinant IFN-γ (#570206; BioLegend) (protein, UniProt P01579 24-161, looked up)
Interferon gamma: QDPYVKEAENLKKYFNAGHSDVADNGTLFLGILKNWKEESDRKIMQSQIVSFYFKLFKNFKDDQSIQKSVETIKEDMNVKFFNSNKKKRDDFEKLTNYSVTDLNVQRKAIHELIQVMAELSPAAKTGKRKRSQMLFRG
[3]; 14 PDAC and circulating tumor cell lines, 50 ng/mL
  MHC class II surface expression: upregulated in these cell lines and de novo expression was observed in six additional cell lines
[3]
  MHC-II expression, agent alone: induced low expression of MHC-II
